Test results taken from patent publication US9085584B2, “Substituted pyrido[3,2-E][1,2,4]-triazolo[4,3-A]pyrazines for the treatment of central nervous system disorders” (Boehringer Ingelheim International GmbH, priority 2012, dated 2015).

Assay: Metabolic stability in pooled liver microsomes
Format: in vitro ADME, human
Conditions: 1 μM test compound, 37° C.; for half-life at 1 μM: human, pooled liver microsomes, pH 7.6, human liver microsomes, read-out: Half-life - t½; for Half-life - t½: human liver microsomes
Protocol: The metabolic stability of the compounds according to the invention has been investigated as follows:
The metabolic degradation of the test compound was assayed at 37° C. with pooled liver microsomes from various species. The final incubation volume of 100 μl per time point contains TRIS buffer pH 7.6 at room temperature (0.1 M), magnesium chloride (5 mM), microsomal protein (1 mg/mL for human and dog, 0.5 mg/mL for other species) and the test compound at a final concentration of 1 μM. Following a short preincubation period at 37° C., the reactions were initiated by addition of betanicotinamide adenine dinucleotide phosphate, reduced form (NADPH, 1 mM), and terminated by transferring an aliquot into solvent after different time points. […] The half-life was determined by the slope of the semi-logarithmic plot of the concentration-time profile.

SMILES	half-life at 1 μM	Half-life - t½
Cc1nc2cccnc2n2c(-c3cc(C4(O)CCOC4)ccc3Cl)nnc12 (single isomer, unassigned) [Example 99]	–	2.17 h
Cc1nc2cccnc2n2c(-c3cc(O)ccc3Cl)nnc12 [Example 1]	–	2.17 h
Cc1nc2ccc(C(F)(F)F)nc2n2c(-c3cc(O)ccc3Cl)nnc12 [Example 12]	1.05 h	–
Cc1nc2cccnc2n2c(-c3cc(OCCCO)ccc3Cl)nnc12 [Example 13]	–	2.17 h
Cc1nc2cccnc2n2c(-c3cc(OC[C@@H](C)O)ccc3Cl)nnc12 [Example 17]	–	2.17 h
Cc1nc2cccnc2n2c(-c3cc(OC[C@H](C)O)ccc3Cl)nnc12 [Example 18]	–	2.17 h
Cc1nc2cccnc2n2c(-c3cc(OC4CCOCC4)ccc3Cl)nnc12 [Example 20]	–	2.17 h
Cc1nc2cccnc2n2c(-c3cc(OC4CCC(F)(F)CC4)ccc3Cl)nnc12 [Example 21]	–	2.17 h
Cc1ccc2nc(C)c3nnc(-c4cc(OC5CCC(F)(F)CC5)ccc4Cl)n3c2n1 [Example 30]	–	2.17 h
Cc1ccc2nc(C)c3nnc(-c4cc(OC[C@H](C)O)ccc4Cl)n3c2n1 [Example 34]	–	2.17 h
Cc1ccc2nc(C)c3nnc(-c4cc(OC[C@@H](C)O)ccc4Cl)n3c2n1 [Example 35]	–	2.17 h
Cc1nc2cccnc2n2c(-c3cc(OCC(C)(C)O)ccc3Cl)nnc12 [Example 44]	–	2.17 h
Cc1ccc2nc(C)c3nnc(-c4cc(OCC(C)(C)O)ccc4Cl)n3c2n1 [Example 46]	–	2.17 h
Cc1nc2cccnc2n2c(-c3cc(OCC4(O)CCC4)ccc3Cl)nnc12 [Example 49]	–	2.17 h
Cc1ccc(OCC2(O)CCC2)cc1-c1nnc2c(C)nc3cccnc3n12 [Example 50]	–	2.17 h
Cc1ccc(OCC(C)(C)O)cc1-c1nnc2c(C)nc3ccc(C(C)C)nc3n12 [Example 51]	–	2.17 h
Cc1nc2ccc(C(C)C)nc2n2c(-c3cc(OCC(C)(C)O)ccc3F)nnc12 [Example 52]	–	2.17 h
Cc1nc2cc(C(C)C)cnc2n2c(-c3cc(OCC(C)(C)O)ccc3Cl)nnc12 [Example 54]	–	2.17 h
Cc1ccc2nc(C)c3nnc(-c4cc(C(O)C(C)C)ccc4Cl)n3c2n1 (stereo not drawn) [Example 59]	–	0.817 h

SMILES	half-life at 1 μM	Half-life - t½
CCCC(O)c1ccc(Cl)c(-c2nnc3c(C)nc4ccc(C)nc4n23)c1 (stereo not drawn) [Example 61]	1.08 h	–
CCC(O)c1ccc(Cl)c(-c2nnc3c(C)nc4ccc(C)nc4n23)c1 (stereo not drawn) [Example 62]	–	2.17 h
Cc1ccc2nc(C)c3nnc(-c4cc(C(C)O)ccc4Cl)n3c2n1 (stereo not drawn) [Example 63]	–	2.17 h
Cc1nc2cccnc2n2c(-c3cc(CCC(C)(C)O)ccc3Cl)nnc12 [Example 64]	–	2.17 h
Cc1nc2ccc(C3CC3)nc2n2c(-c3cc(CCC(C)(C)O)ccc3F)nnc12 [Example 66]	0.95 h	–
Cc1ccc(CCC(C)(C)O)cc1-c1nnc2c(C)nc3cccnc3n12 [Example 67]	–	2.17 h
Cc1nc2cccnc2n2c(-c3cc(C(C)(C)O)ccc3Cl)nnc12 [Example 70]	–	2.17 h
Cc1ccc2nc(C)c3nnc(-c4cc(C(C)(C)O)ccc4Cl)n3c2n1 [Example 71]	–	2.17 h
Cc1nc2ccc(C3(C)CC3)nc2n2c(-c3cc(C(C)(C)O)ccc3F)nnc12 [Example 72]	–	2.17 h
Cc1nc2ccc(C(C)C)nc2n2c(-c3cc(C(C)(C)O)ccc3Cl)nnc12 [Example 77]	1.5 h	–
Cc1ccc(C(C)(C)O)cc1-c1nnc2c(C)nc3ccc(C(C)C)nc3n12 [Example 78]	1.32 h	–
Cc1nc2cccnc2n2c(-c3cc(CC(C)(C)O)ccc3Cl)nnc12 [Example 82]	–	2.17 h
Cc1nc2cccnc2n2c(-c3cc(C4(O)CCC4)ccc3Cl)nnc12 [Example 87]	–	2.17 h
Cc1ccc2nc(C)c3nnc(-c4cc(C5(O)CCC5)ccc4Cl)n3c2n1 [Example 89]	–	2.17 h
Cc1nc2ccc(C(C)C)nc2n2c(-c3cc(C4(O)CCC4)ccc3Cl)nnc12 [Example 91]	0.467 h	–
Cc1nc2ccc(C(C)C)nc2n2c(-c3cc(C4(O)CCC4)ccc3F)nnc12 [Example 92]	0.383 h	–
Cc1nc2cccnc2n2c(-c3cc(C4(O)CCOCC4)ccc3Cl)nnc12 [Example 93]	–	2.17 h
Cc1nc2ccc(C(F)(F)F)nc2n2c(-c3cc(C4(O)CCOCC4)ccc3Cl)nnc12 [Example 96]	1.83 h	–
Cc1ccc2nc(C)c3nnc(-c4cc(C5(O)CCC5)ccc4C)n3c2n1 [Example 102]	–	2.17 h

More lines, now with the values ahead:

half-life at 1 μM	Half-life - t½	SMILES
2 h	–	Cc1nc2ccc(C3CC3)nc2n2c(-c3cc(OC4COCC4O)ccc3Cl)nnc12 (racemic) [Example 56]
–	2.17 h	Cc1ccc(OC2COCC2O)cc1-c1nnc2c(C)nc3ccc(C4CC4)nc3n12 (racemic) [Example 57]
–	2.17 h	Cc1nc2ccc(C3CC3)nc2n2c(-c3cc(OC4COCC4O)ccc3Cl)nnc12 (racemic) [Example 58a]
–	2.17 h	Cc1ccc(C2(O)CCOCC2O)cc1-c1nnc2c(C)nc3ccc(C4CC4)nc3n12 (racemic) [Example 104]
–	2.17 h	Cc1nc2cccnc2n2c(-c3cc(OC4COCC4O)ccc3Cl)nnc12 (single isomer, unassigned) [Example 55a]
1.83 h	–	Cc1nc2ccc(C3CC3)nc2n2c(-c3cc(OC4COCC4O)ccc3Cl)nnc12 (single isomer, unassigned) [Example 56a]
–	1.03 h	Cc1nc2ccc(C3CC3)nc2n2c(-c3cc(OC4COCC4O)ccc3Cl)nnc12 (single isomer, unassigned) [Example 56b]
–	2.17 h	Cc1ccc(OC2COCC2O)cc1-c1nnc2c(C)nc3ccc(C4CC4)nc3n12 (single isomer, unassigned) [Example 57a]
1.55 h	–	Cc1ccc(OC2COCC2O)cc1-c1nnc2c(C)nc3ccc(C4CC4)nc3n12 (single isomer, unassigned) [Example 57b]
–	2.17 h	Cc1nc2cccnc2n2c(-c3cc(OC4COCCC4O)ccc3Cl)nnc12 (single isomer, unassigned) [Example 58]
–	2.17 h	Cc1nc2ccc(C3CC3)nc2n2c(-c3cc(OC4COCC4O)ccc3Cl)nnc12 (single isomer, unassigned) [Example 58b]
–	2.17 h	Cc1nc2ccc(C3CC3)nc2n2c(-c3cc(OC4COCC4O)ccc3Cl)nnc12 (single isomer, unassigned) [Example 58c]
–	2.17 h	Cc1ccc(C2(O)CCOCC2O)cc1-c1nnc2c(C)nc3ccc(C4CC4)nc3n12 (single isomer, unassigned) [Example 104a]
0.717 h	–	Cc1nc2ccc(C3CC3)nc2n2c(-c3cc(O)ccc3F)nnc12 [Example 5]
1.1 h	–	Cc1ccc(O)cc1-c1nnc2c(C)nc3ccc(C4CC4)nc3n12 [Example 6]
0.683 h	–	Cc1nc2ccc(C3CC3)nc2n2c(-c3cc(O)ccc3Cl)nnc12 [Example 9]
–	2.17 h	Cc1ccc2nc(C)c3nnc(-c4cc(OC5CCOCC5)ccc4Cl)n3c2n1 [Example 32]

half-life at 1 μM	Half-life - t½	SMILES
0.6 h	–	Cc1nc2ccc(C3CC3)nc2n2c(-c3cc(OC4CCOCC4)ccc3Cl)nnc12 [Example 32a]
–	2.17 h	Cc1ccc2nc(C)c3nnc(-c4cc(O[C@@H]5CCOC5)ccc4Cl)n3c2n1 [Example 42]
–	2.17 h	Cc1ccc2nc(C)c3nnc(-c4cc(O[C@H]5CCOC5)ccc4Cl)n3c2n1 [Example 43]
–	2.17 h	Cc1nc2ccc(C3CC3)nc2n2c(-c3cc(OCC(C)(C)O)ccc3Cl)nnc12 [Example 45]
–	2.17 h	Cc1nc2ccc(C3CC3)nc2n2c(-c3cc(OCC(C)(C)O)ccc3F)nnc12 [Example 47]
–	2.17 h	Cc1ccc(OCC(C)(C)O)cc1-c1nnc2c(C)nc3ccc(C4CC4)nc3n12 [Example 48]
0.65 h	–	Cc1ccc(CCC(C)(C)O)cc1-c1nnc2c(C)nc3ccc(C4CC4)nc3n12 [Example 68]
0.883 h	–	Cc1nc2ccc(C3CC3)nc2n2c(-c3cc(CCC(C)(C)O)ccc3Cl)nnc12 [Example 69]
–	2.17 h	Cc1nc2ccc(C3CC3)nc2n2c(-c3cc(C(C)(C)O)ccc3F)nnc12 [Example 76]
1.38 h	–	Cc1nc2ccc(C3CC3)nc2n2c(-c3cc(CC(C)(C)O)ccc3F)nnc12 [Example 80]
0.433 h	–	Cc1ccc(CC(C)(C)O)cc1-c1nnc2c(C)nc3ccc(C4CC4)nc3n12 [Example 81]
1.67 h	–	Cc1nc2ccc(C3CC3)nc2n2c(-c3cc(CC(C)(C)O)ccc3Cl)nnc12 [Example 83]
0.65 h	–	Cc1nc2ccc(C3CC3)nc2n2c(-c3cc(C4(O)CCC4)ccc3F)nnc12 [Example 84]
–	2.17 h	Cc1nc2ccc(C3CC3)nc2n2c(-c3cc(C(C)(C)O)ccc3Cl)nnc12 [Example 85]
0.883 h	–	Cc1nc2ccc(C3CC3)nc2n2c(-c3cc(C4(O)CCC4)ccc3Cl)nnc12 [Example 88]
0.633 h	–	Cc1nc2ccc(C3CC3)nc2n2c(-c3cc(C4(O)CCOCC4)ccc3Cl)nnc12 [Example 94]
0.367 h	–	Cc1nc2ccc(C3CC3)nc2n2c(-c3cc(C(C)(C)CO)ccc3F)nnc12 [Example 101]
